According to patent US9708316B2 (BRISTOL-MYERS SQUIBB COMPANY, priority 2014, dated 2017):

Key:
HIS-TGFβR1 T204D = molecular target: T1, HIS-TGFβR1 T204D (Homo sapiens, UniProt P36897, T204D); test: HTRF probe-displacement assay, HIS-TGFβR1 T204D; format: binding; conditions: read-out: TGFβR1 (μM) IC50
T1 sequence (P36897 34-503 T204D): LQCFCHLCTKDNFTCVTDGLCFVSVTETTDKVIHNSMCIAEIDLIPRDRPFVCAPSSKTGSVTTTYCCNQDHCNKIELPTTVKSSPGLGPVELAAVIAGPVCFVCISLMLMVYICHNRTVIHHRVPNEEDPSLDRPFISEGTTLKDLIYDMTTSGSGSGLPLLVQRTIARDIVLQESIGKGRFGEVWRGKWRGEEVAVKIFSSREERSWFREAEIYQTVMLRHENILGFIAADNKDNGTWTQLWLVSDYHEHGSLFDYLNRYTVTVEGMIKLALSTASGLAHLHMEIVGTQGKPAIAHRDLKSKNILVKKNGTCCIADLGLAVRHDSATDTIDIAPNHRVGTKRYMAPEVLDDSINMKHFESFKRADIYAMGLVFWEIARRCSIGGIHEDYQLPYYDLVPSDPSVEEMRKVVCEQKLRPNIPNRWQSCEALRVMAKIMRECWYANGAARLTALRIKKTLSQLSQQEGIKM

HIS-TGFβR2 WT = HIS-TGFβR2 WT (Homo sapiens, UniProt P37173); test: HTRF probe-displacement assay, HIS-TGFβR2 WT; format: binding
Chain of HIS-TGFβR2 WT (P37173 23-567): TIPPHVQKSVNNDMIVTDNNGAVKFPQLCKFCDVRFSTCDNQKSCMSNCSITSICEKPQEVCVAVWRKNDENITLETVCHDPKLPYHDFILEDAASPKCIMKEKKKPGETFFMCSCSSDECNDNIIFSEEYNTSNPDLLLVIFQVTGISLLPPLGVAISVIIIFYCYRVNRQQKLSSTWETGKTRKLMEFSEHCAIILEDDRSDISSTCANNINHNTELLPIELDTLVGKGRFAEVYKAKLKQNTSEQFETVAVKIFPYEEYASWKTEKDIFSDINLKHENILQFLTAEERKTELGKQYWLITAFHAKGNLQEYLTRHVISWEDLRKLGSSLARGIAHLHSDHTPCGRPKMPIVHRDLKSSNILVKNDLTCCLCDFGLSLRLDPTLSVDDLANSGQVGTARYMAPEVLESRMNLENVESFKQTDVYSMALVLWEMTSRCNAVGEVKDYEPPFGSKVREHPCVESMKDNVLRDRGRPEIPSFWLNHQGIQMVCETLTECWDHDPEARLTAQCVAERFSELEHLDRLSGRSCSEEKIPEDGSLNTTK

Row | IC50 (HIS-TGFβR1 T204D) | IC50 (HIS-TGFβR2 WT) | Compound
1 | 0.001 µM | 0.503 µM | CC(=O)Nc1cc(-c2[nH]c3c(CO)ccnc3c2-c2cccc(Cl)n2)ccn1 [Example 276, N-(4-(3-(6-Chloropyridin-2-yl)-7-(hydroxymethyl)-1H-pyrrolo[3,2-b]pyridin-2-yl)pyridin-2-yl)acetamide]
2 | 0.002 µM | > 15 µM | COc1ccc(-c2c(-c3ccnc(NC(C)=O)c3)[nH]c3cc(C#N)cnc23)nc1 [Example 92, N-{4-[6-Cyano-3-(5-methoxypyridin-2-yl)-1H-pyrrolo[3,2-b]pyridin-2-yl]pyridin-2-yl}acetamide]
3 | 0.0274 µM | > 15 µM | COc1ccc(-c2c(-c3ccnc(NC(C)=O)c3)[nH]c3cc(Cl)cnc23)nc1Cl [Example 180, N-(4-(6-Chloro-3-(6-chloro-5-methoxypyridin-2-yl)-1H-pyrrolo[3,2-b]pyridin-2-yl)pyridin-2-yl)acetamide]
4 | 7 µM | > 15 µM | CC(=O)Nc1cc(-c2[nH]c3cc(C)cnc3c2-c2ncc(C(F)F)s2)ccn1 [Example 185, N-(4-(3-(5-(Difluoromethyl)thiazol-2-yl)-6-methyl-1H-pyrrolo[3,2-b]pyridin-2-yl)pyridin-2-yl)acetamide]
5 | 0.01 µM | > 15 µM | COc1cccc(-c2c(-c3ccnc(NC(C)=O)c3)[nH]c3cc(Cl)cnc23)n1 [Example 65, N-{4-[6-Chloro-3-(6-methoxypyridin-2-yl)-1H-pyrrolo[3,2-b]pyridin-2-yl]pyridin-2-yl}acetamide]
6 | 0.0015 µM | 0.129 µM | CC(=O)Nc1cc(-c2[nH]c3c(C(F)F)ccnc3c2-c2nc(C)cs2)ccn1 [Example 222, N-(4-(7-(Difluoromethyl)-3-(4-methylthiazol-2-yl)-1H-pyrrolo[3,2-b]pyridin-2-yl)pyridin-2-yl)acetamide]
7 | 0.0014 µM | > 15 µM | CC(=O)Nc1cc(-c2[nH]c3cc(Cl)cnc3c2-c2nc(C#N)cs2)ccn1 [Example 177, N-(4-(6-Chloro-3-(4-cyanothiazol-2-yl)-1H-pyrrolo[3,2-b]pyridin-2-yl)pyridin-2-yl)acetamide]
8 | 0.002 µM | > 15 µM | COC(=O)Nc1cc(-c2[nH]c3cc(Cl)cnc3c2-c2ccc(OC)cn2)ccn1 [Example 87, Methyl N-{4-[6-chloro-3-(5-methoxypyridin-2-yl)-1H-pyrrolo[3,2-b]pyridin-2-yl]pyridin-2-yl}carbamate]
9 | 0.0029 µM | 0.147 µM | CC(=O)Nc1cc(-c2[nH]c3cccnc3c2-c2nccs2)ccn1 [Example 205, N-(4-(3-(Thiazol-2-yl)-1H-pyrrolo[3,2-b]pyridin-2-yl)pyridin-2-yl)acetamide]
10 | 0.0035 µM | 0.176 µM | CC(=O)Nc1cc(-c2[nH]c3cc(Cl)cnc3c2-c2nc(CO)cs2)ccn1 [Example 178, N-(4-(6-Chloro-3-(4-(hydroxymethyl)thiazol-2-yl)-1H-pyrrolo[3,2-b]pyridin-2-yl)pyridin-2-yl)acetamide]

Second part, the molecule before the results:

Row | Compound | IC50 (HIS-TGFβR1 T204D) | IC50 (HIS-TGFβR2 WT)
11 | CCOc1cnc2c(-c3ccc(OC)cn3)c(-c3ccnc(NC(C)=O)c3)[nH]c2c1 [Example 96, N-(4-(6-Ethoxy-3-(5-methoxypyridin-2-yl)-1H-pyrrolo[3,2-b]pyridin-2-yl)pyridin-2-yl)acetamide] | 0.001 µM | > 15 µM
12 | COc1cnc2c(-c3ccc(C(F)F)cn3)c(-c3ccnc(NC(C)=O)c3)[nH]c2c1 [Example 110, N-(4-(3-(5-(Difluoromethyl)pyridin-2-yl)-6-methoxy-1H-pyrrolo[3,2-b]pyridin-2-yl)pyridin-2-yl)acetamide] | 0.053 µM | > 15 µM
13 | CC(=O)Nc1cc(-c2[nH]c3c(C(C)O)ccnc3c2-c2cccc(C(F)F)n2)ccn1 (centres unmarked) [Example 143, N-(4-{3-[6-(Difluoromethyl)pyridin-2-yl]-7-(1-hydroxyethyl)-1H-pyrrolo[3,2-b]pyridin-2-yl}pyridin-2-yl)acetamide] | 0.001 µM | 2.53 µM
14 | O=C(CN1CCNCC1)Nc1cc(-c2[nH]c3cc(Cl)cnc3c2-c2ccc(F)cn2)ccn1 [Example 247, N-(4-(6-Chloro-3-(5-fluoropyridin-2-yl)-1H-pyrrolo[3,2-b]pyridin-2-yl)pyridin-2-yl)-2-(piperazin-1-yl)acetamide] | 0.003 µM | ≥ 15 µM
15 | COc1cc(-c2c(-c3ccnc(NC(C)=O)c3)[nH]c3cccnc23)ccn1 [Example 196, N-(4-(3-(2-Methoxypyridin-4-yl)-1H-pyrrolo[3,2-b]pyridin-2-yl)pyridin-2-yl)acetamide] | 0.0951 µM | 1.21 µM
16 | CC(=O)Nc1cc(-c2[nH]c3cccnc3c2-c2nccc(C)n2)ccn1 [Example 195, N-(4-(3-(4-Methylpyrimidin-2-yl)-1H-pyrrolo[3,2-b]pyridin-2-yl)pyridin-2-yl)acetamide] | 0.0048 µM | > 15 µM
17 | CC(=O)Nc1cc(-c2[nH]c3cccnc3c2-c2cccc3cccnc23)ccn1 [Example 21, N-{4-[3-(Quinolin-8-yl)-1H-pyrrolo[3,2-b]pyridin-2-yl]pyridin-2-yl}acetamide] | 1.49 µM | > 15 µM
18 | COCC(C)Oc1cnc2c(-c3ccc(OC)cn3)c(-c3ccnc(NC(C)=O)c3)[nH]c2c1 (centres unmarked) [Example 97, N-(4-(6-((1-Methoxypropan-2-yl)oxy)-3-(5-methoxypyridin-2-yl)-1H-pyrrolo[3,2-b]pyridin-2-yl)pyridin-2-yl)acetamide] | 0.001 µM | > 15 µM
19 | CC(=O)Nc1cc(-c2[nH]c3c(C)ccnc3c2-c2csc(C)n2)ccn1 [Example 221, N-(4-(7-Methyl-3-(2-methylthiazol-4-yl)-1H-pyrrolo[3,2-b]pyridin-2-yl)pyridin-2-yl)acetamide] | 0.0037 µM | 1.36 µM
20 | CC(=O)Nc1cc(-c2[nH]c3c(CO)ccnc3c2-c2cccc(C)n2)ccn1 [Example 279, N-(4-(7-(Hydroxymethyl)-3-(6-methylpyridin-2-yl)-1H-pyrrolo[3,2-b]pyridin-2-yl)pyridin-2-yl)acetamide] | 0.006 µM | 9.9 µM
21 | CC(=O)Nc1cc(-c2[nH]c3cccnc3c2-c2cnc(F)c(F)c2)ccn1 [Example 10, N-{4-[3-(5,6-Difluoropyridin-3-yl)-1H-pyrrolo[3,2-b]pyridin-2-yl]pyridin-2-yl}acetamide] | 0.057 µM | 0.01 µM
22 | COc1ccc(-c2c(-c3ccnc(NC(C)=O)c3)[nH]c3ccc(F)nc23)nc1 [Example 37, N-{4-[5-Fluoro-3-(5-methoxypyridin-2-yl)-1H-pyrrolo[3,2-b]pyridin-2-yl]pyridin-2-yl}acetamide] | 0.002 µM | > 15 µM
23 | COC(=O)Nc1cc(-c2[nH]c3cc(OC)cnc3c2-c2ccc(OC)cn2)ccn1 [Example 124, Methyl N-{4-[6-methoxy-3-(5-methoxypyridin-2-yl)-1H-pyrrolo[3,2-b]pyridin-2-yl]pyridin-2-yl}carbamate] | 0.001 µM | 12.8 µM
24 | COc1ccc(-c2c(-c3ccnc(NC(=O)CN4CCN(C)CC4)c3)[nH]c3cc(OC)cnc23)nc1 [Example 119, N-{4-[6-Methoxy-3-(5-methoxypyridin-2-yl)-1H-pyrrolo[3,2-b]pyridin-2-yl]pyridin-2-yl}-2-(4-methylpiperazin-1-yl)acetamide] | < 0.001 µM | > 15 µM
25 | CC(=O)Nc1cc(-c2[nH]c3c([C@@H](C)O)ccnc3c2-c2cccc(C(F)F)n2)ccn1 (single isomer, unassigned) [Example 146] | 0.001 µM | 1.78 µM
26 | COc1ccc(-c2c(-c3ccnc(NC(C)=O)c3)[nH]c3cc(C(O)C(F)(F)C(N)=O)cnc23)nc1 (centres unmarked) [Example 295, 3-(2-(2-Acetamidopyridin-4-yl)-3-(5-methoxypyridin-2-yl)-1H-pyrrolo[3,2-b]pyridin-6-yl)-2,2-difluoro-3-hydroxypropanamide] | 0.001 µM | > 15 µM
27 | COCCCc1ccnc2c(-c3cccc(C(F)F)n3)c(-c3ccnc(NC(C)=O)c3)[nH]c12 [Example 131, N-(4-{3-[6-(Difluoromethyl)pyridin-2-yl]-7-(3-methoxypropyl)-1H-pyrrolo[3,2-b]pyridin-2-yl}pyridin-2-yl)acetamide] | 0.001 µM | 3.84 µM
28 | COc1ccc(-c2c(-c3ccnc(NC(C)=O)c3)[nH]c3cc(OC4COC4)cnc23)nc1 [Example 98, N-(4-(3-(5-Methoxypyridin-2-yl)-6-(oxetan-3-yloxy)-1H-pyrrolo[3,2-b]pyridin-2-yl)pyridin-2-yl)acetamide] | 0.002 µM | > 15 µM
29 | COc1ccc(-c2c(-c3ccnc(NC(C)=O)c3)[nH]c3cc(N(C)CCO)cnc23)nc1 [Example 165, N-(4-(6-((2-Hydroxyethyl)(methyl)amino)-3-(5-methoxypyridin-2-yl)-1H-pyrrolo[3,2-b]pyridin-2-yl)pyridin-2-yl)acetamide] | 0.0353 µM | > 15 µM
30 | COc1ccc(-c2c(-c3ccnc(NC(C)=O)c3)[nH]c3cc(N4CCC[C@H]4CO)cnc23)nc1 [Example 162, (S)-N-(4-(6-(2-(Hydroxymethyl)pyrrolidin-1-yl)-3-(5-methoxypyridin-2-yl)-1H-pyrrolo[3,2-b]pyridin-2-yl)pyridin-2-yl)acetamide] | 0.0279 µM | > 15 µM
31 | CCC(O)c1ccnc2c(-c3ccc(OC)nc3)c(-c3ccnc(NC(C)=O)c3)[nH]c12 (centres unmarked) [Example 301, N-(4-(7-(1-Hydroxypropyl)-3-(6-methoxypyridin-3-yl)-1H-pyrrolo[3,2-b]pyridin-2-yl)pyridin-2-yl)acetamide] | 0.001 µM | 0.031 µM
